This is an account of results in ChEMBL document CHEMBL2396640, “Exploring DOXP-reductoisomerase binding limits using phosphonated N-aryl and N-heteroarylcarboxamides as DXR inhibitors” (Bioorg Med Chem, 2013).

The subject of assay [1] is Escherichia coli. The experiment in a line: Inhibition of Escherichia coli DXR using DOXP as substrate assessed as conversion of NADPH to NADP at 500 uM preincubated for 5 mins.
Assay [2] has as its system Escherichia coli. The experiment in a line: Binding affinity to Escherichia coli DXR at 20 uM by STD-NMR analysis.
Assay [3] concerns Escherichia coli. The experiment in a line: Inhibition of Escherichia coli DXR using DOXP as substrate assessed as conversion of NADPH to NADP at 250 uM preincubated for 5 mins measured after 10 mins relative to control.
In assay [4] the test system is Plasmodium falciparum. The experiment in a line: Activation of Plasmodium falciparum DXR using DOXP as substrate assessed as conversion of NADPH to NADP at 250 uM preincubated for 5 mins relative to control.
Assay [5] relates to Escherichia coli. The experiment in a line: Inhibition of Escherichia coli DXR using DOXP as substrate assessed as conversion of NADPH to NADP at 250 uM preincubated for 5 mins relative to control.
For assay [6], the system named is Plasmodium falciparum. The experiment in a line: Inhibition of Plasmodium falciparum DXR using DOXP as substrate assessed as conversion of NADPH to NADP at 250 uM preincubated for 5 mins relative to control.
For assay [7], the system named is Escherichia coli. The experiment in a line: Activation of Escherichia coli DXR using DOXP as substrate assessed as conversion of NADPH to NADP at 250 uM preincubated for 5 mins.
Assay [8] deals with Escherichia coli. The experiment in a line: Activation of Escherichia coli DXR using DOXP as substrate assessed as conversion of NADPH to NADP at 500 uM preincubated for 5 mins.

Active and inactive are the calls of the source. The rule behind the calls is not given here.

Turning to `CCOP(=O)(CC(=O)Nc1nc(C)c(C(C)=O)s1)OCC`, the inhibition in assay [1] worked out at 21.6%. In addition, the result in assay [2] was Active.

For `CCOP(=O)(CC(=O)Nc1nccs1)OCC`, the inhibition in assay [1] was 28.9%. Moreover, the outcome in assay [2] was Active.

On to `CCOP(=O)(CC(=O)Nc1ccon1)OCC`, for which the inhibition in assay [1] worked out at 11.7%. Also, the result in assay [2] was Active.

Regarding `CCOP(=O)(CCC(=O)Nc1cccc(OC)c1)OCC`, the inhibition was found to be 14.1% in assay [3] and 23.3% in assay [5]. The result in assay [4] was Active.

In the case of `CCOP(=O)(CCC(=O)Nc1nc(C)c(C(C)=O)s1)OCC`, the inhibition in assay [1] was determined as 0.3%. Also, the outcome in assay [2] was Active.

In the case of `CCOP(=O)(CC(=O)Nc1cccc(O)c1)OCC`, the inhibition worked out at 24.4% in assay [3], 12% in assay [6] and 44.6% in assay [5].

As to `O=C(CCCP(=O)(O)O)Nc1cccc(O)c1`, the inhibition in assay [3] turned out to be 0.7%.

In the case of `CCOP(=O)(CC(=O)Nc1cccc(Br)c1)OCC`, the inhibition in assay [3] came to 21.4%; in assay [5], 16.3%. In addition, in assay [4], the result was Active.

With `CCOP(=O)(CCC(=O)NCc1ccco1)OCC`, in assay [1], the inhibition was found to be 0.2%. In addition, the result in assay [2] was Active.

As to `CCOP(=O)(CCC(=O)Nc1cccc(O)c1)OCC`, the inhibition stood at 33.5% in assay [3] and 23.1% in assay [5]. For the same molecule, the result in assay [4] was Active.

On to `O=C(CCP(=O)(O)O)Nc1cccc(O)c1`, for which the results for the inhibition in assay [3], in assay [6] and in assay [5] were 49.2%, 1.1% and 23.7%, respectively.

Take `CCOP(=O)(CCCC(=O)Nc1cccc(O)c1)OCC`: in assay [3], the inhibition was determined as 0.8%.

Consider `CC(=O)c1sc(NC(=O)CP(=O)(O)O)nc1C`, for which the inhibition in assay [1] came out at 16.6%. For the same molecule, the outcome in assay [2] was Active.

Turning to `COc1cccc(NC(=O)CCP(=O)(O)O)c1`, the outcome in assay [7] and in assay [4] was Active. The inhibition in assay [5] was 8.7%.

For the molecule `CCOP(=O)(CCC(=O)Nc1nccs1)OCC`, the inhibition in assay [1] came to 0.1%. Further, the outcome in assay [2] was Active.

As for `O=C(CCCCP(=O)(O)O)Nc1cccc(O)c1`, the result in assay [2] was inactive. The result in assay [7] was Active.

Consider `N#Cc1cccc(NC(=O)CCCP(=O)(O)O)c1`, for which the outcome in assay [2] was inactive.

With `CCOP(=O)(CCC(=O)Nc1ccon1)OCC`, in assay [1], the inhibition is 0%. Also, the outcome in assay [2] was Active.

On to `O=C(CP(=O)(O)O)Nc1cccc(Br)c1`, for which the inhibition was determined as 26.8% in assay [3], 42% in assay [6] and 22.3% in assay [5].

For `O=C(CCP(=O)(O)O)Nc1ccon1`, in assay [1], the inhibition is 0.2%. In addition, in assay [2], the result was Active.

As to `O=C(CCP(=O)(O)O)NCc1ccco1`, in assay [1], the inhibition worked out at 0.3%. The outcome in assay [2] was Active.

Take `CCOP(=O)(CCCC(=O)Nc1cccc(Br)c1)OCC`: the outcome in assay [7] was Active.

On to `COc1cccc(NC(=O)CP(=O)(O)O)c1`, for which the inhibition in assay [3] turned out to be 17.8%; in assay [6] it was 40.8%; in assay [5], 31.9%.

Take `N#Cc1cccc(NC(=O)CP(=O)(O)O)c1`: the inhibition is 20% in assay [3] and 8.2% in assay [5]. Further, in assay [4], the result was Active.

`CC(=O)c1sc(NC(=O)CCP(=O)(O)O)nc1C`: the inhibition in assay [1] was determined as 0%. In addition, the outcome in assay [2] was Active.

For the molecule `O=C(CCP(=O)(O)O)Nc1ccccn1`, the inhibition in assay [1] stood at 0%. In assay [2], the result was Active.

In the case of `O=C(CP(=O)(O)O)NCc1ccco1`, in assay [1], the inhibition was determined as 30%. For the same molecule, the result in assay [2] was Active.

`O=C(CCP(=O)(O)O)Nc1nccs1`: in assay [1], the inhibition turned out to be 0.2%. Also, the result in assay [2] was Active.

Consider `CCOP(=O)(CCC(=O)Nc1cccc(CO)c1)OCC`, for which the values for the inhibition in assay [3] and in assay [5] were 17.9% and 17.1%, respectively. For the same molecule, the result in assay [4] was Active.

Regarding `O=C(CP(=O)(O)O)Nc1ccccn1`, the outcome in assay [8] and in assay [2] was Active.

As to `CCOP(=O)(CC(=O)Nc1cccc(OC)c1)OCC`, in assay [4], the outcome was Active. In addition, the inhibition in assay [5] was determined as 11%.

For `COc1cccc(NC(=O)CCCCP(=O)(O)O)c1`, in assay [7], the result was Active.

On to `O=C(CCP(=O)(O)O)Nc1cccc(CO)c1`, for which the inhibition in assay [3] was 26.8%; in assay [6] it was 10.9%; in assay [5], 16%.

On to `CCOP(=O)(CC(=O)Nc1ccccn1)OCC`, for which the inhibition in assay [1] stood at 58.5%. Moreover, in assay [2], the result was Active.

Take `CCOP(=O)(CCC(=O)Nc1ccccn1)OCC`: the outcome in assay [8] and in assay [2] was Active.

Take `O=C(CP(=O)(O)O)Nc1cccc(O)c1`: the results for the inhibition in assay [3], in assay [6] and in assay [5] were 43.9%, 45.2% and 34.4%, respectively.

As for `O=C(CCCCP(=O)(O)O)Nc1cccc(Br)c1`, in assay [2], the result was inactive. In addition, the result in assay [7] was Active.

Take `O=C(CP(=O)(O)O)Nc1ccon1`: the inhibition in assay [1] was 12.2%. For the same molecule, in assay [2], the result was Active.

`CCOP(=O)(CC(=O)Nc1cccc(C#N)c1)OCC`: the figures for the inhibition in assay [3], in assay [6] and in assay [5] were 11.9%, 4.8% and 21.9%, respectively.

Take `CCOP(=O)(CCCCC(=O)Nc1cccc(O)c1)OCC`: the outcome in assay [7] was Active.

`CCOP(=O)(CC(=O)Nc1cccc(CO)c1)OCC`: the inhibition in assay [6] worked out at 40.7%; in assay [5], 40.4%.

For the molecule `CCOP(=O)(CC(=O)NCc1ccco1)OCC`, in assay [1], the inhibition stood at 67.7%. In addition, in assay [2], the outcome was Active.

Regarding `O=C(CP(=O)(O)O)Nc1nccs1`, the inhibition in assay [1] worked out at 7.4%. The result in assay [2] was Active.

On to `CCOP(=O)(CCCCC(=O)Nc1cccc(OC)c1)OCC`, for which the outcome in assay [7] was Active.

What is called inhibition is the percentage by which the read-out fell short of the control.
